# Test results reported in US10947271B2, “Antibacterial agents” (THE UNIVERSITY OF QUEENSLAND, priority 2014, dated 2021).
# How the values were obtained:
# Assay type in all cases: cell-based
# Conditions in all cases: 24 h incubation, visual reading
# [1] = system: Staphylococcus aureus MRSA ATCC 43300; assay: MIC assay, S. aureus MRSA ATCC 43300
# Outline: (§1)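 Overnight MHB cultures at 37° C were diluted 40-fold and grown 2-3 hrs to mid-log, then added at 5×10e5 CFU/mL to twofold compound dilutions (8 to 0.003 μg/ml). Plates were incubated 24 h at 37° C and MIC scored by eye.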
# [2] = system: Streptococcus pneumoniae MDR ATCC 700677; assay: MIC assay, S. pneumoniae MDR ATCC 700677
# Outline: as §1
# [3] = system: Enterococcus faecium MDR Van A ATCC 51559; assay: MIC assay, E. faecium MDR Van A ATCC 51559
# Outline: as §1
Minimum Inhibitory Concentration (MIC) Staph. aureus ATCC43300 [1],Minimum Inhibitory Concentration (MIC) S. pneumoniae ATCC 700677 [2],Minimum Inhibitory Concentration (MIC) E. faecium ATCC51559 [3],Compound
xxxxx (xxxxx = <0.01),xxxxx (xxxxx = <0.01),xx (xx = 1-4),CNC(=O)[C@H](CCCCNC(=O)[C@H]1NC(=O)[C@H]2NC(=O)[C@H](NC(=O)[C@@H]3NC(=O)[C@H](CC(N)=O)NC(=O)[C@H](NC(=O)[C@@H](CC(C)C)NC)[C@H](O)c4ccc(c(Cl)c4)Oc4cc3cc(c4O[C@@H]3O[C@H](CO)[C@@H](O)[C@H](O)[C@H]3O[C@H]3C[C@](C)(N)[C@H](O)[C@H](C)O3)Oc3ccc(cc3Cl)[C@H]2O)c2ccc(O)c(c2)-c2c(O)cc(O)cc21)NC(=O)[C@@H](CCCCN)NC(=O)[C@@H](CCCCN)NC(=O)[C@H](CCCCNC(=O)c1ccc(Oc2ccccc2)cc1)NC(=O)c1ccc(Oc2ccccc2)cc1 [MCC_000766]
x (x = >4),x (x = >4),x (x = >4),CCCCCCCCCCCCCC(=O)NCCCC[C@H](NC(=O)CCCCCCCCCCCCC)C(=O)N[C@@H](CCCCN)C(=O)N[C@@H](CCCCN)C(=O)N[C@@H](CCCCNC(=O)[C@H]1NC(=O)[C@H]2NC(=O)[C@H](NC(=O)[C@@H]3NC(=O)[C@H](CC(N)=O)NC(=O)[C@H](NC(=O)[C@@H](CC(C)C)NC)[C@H](O)c4ccc(c(Cl)c4)Oc4cc3cc(c4O[C@@H]3O[C@H](CO)[C@@H](O)[C@H](O)[C@H]3O[C@H]3C[C@](C)(N)[C@H](O)[C@H](C)O3)Oc3ccc(cc3Cl)[C@H]2O)c2ccc(O)c(c2)-c2c(O)cc(O)cc21)C(=O)NC [MCC_000771]
xxxx (xxxx = 0.01-<0.1),xxxx (xxxx = 0.01-<0.1),xxx (xxx = 0.1-<1),CCCCCCC(CCCC)C(=O)NCCCC[C@H](NC(=O)C(CCCC)CCCCCC)C(=O)N[C@@H](CCCCN)C(=O)N[C@@H](CCCCN)C(=O)N[C@@H](CCCCNC(=O)[C@H]1NC(=O)[C@H]2NC(=O)[C@H](NC(=O)[C@@H]3NC(=O)[C@H](CC(N)=O)NC(=O)[C@H](NC(=O)[C@@H](CC(C)C)NC)[C@H](O)c4ccc(c(Cl)c4)Oc4cc3cc(c4O[C@@H]3O[C@H](CO)[C@@H](O)[C@H](O)[C@H]3O[C@H]3C[C@](C)(N)[C@H](O)[C@H](C)O3)Oc3ccc(cc3Cl)[C@H]2O)c2ccc(O)c(c2)-c2c(O)cc(O)cc21)C(=O)NC (stereo partly drawn) [MCC_000773]
xxxxx (xxxxx = <0.01),xxxxx (xxxxx = <0.01),xxxx (xxxx = 0.01-<0.1),CCCCCCCCCCCCCC(=O)N[C@@H](CCCCN)C(=O)N[C@@H](CCCCN)C(=O)NCC(=O)NCCCNC(=O)[C@H]1NC(=O)[C@H]2NC(=O)[C@H](NC(=O)[C@@H]3NC(=O)[C@H](CC(N)=O)NC(=O)[C@H](NC(=O)[C@@H](CC(C)C)NC)[C@H](O)c4ccc(c(Cl)c4)Oc4cc3cc(c4O[C@@H]3O[C@H](CO)[C@@H](O)[C@H](O)[C@H]3O[C@H]3C[C@](C)(N)[C@H](O)[C@H](C)O3)Oc3ccc(cc3Cl)[C@H]2O)c2ccc(O)c(c2)-c2c(O)cc(O)cc21 [MCC_000784]
xxxx (xxxx = 0.01-<0.1),xxxx (xxxx = 0.01-<0.1),xx (xx = 1-4),CCCCCCCCCN1CCC(C(=O)N[C@@H](CCCCN)C(=O)N[C@@H](CCCCN)C(=O)NCCCNC(=O)[C@H]2NC(=O)[C@H]3NC(=O)[C@H](NC(=O)[C@@H]4NC(=O)[C@H](CC(N)=O)NC(=O)[C@H](NC(=O)[C@@H](CC(C)C)NC)[C@H](O)c5ccc(c(Cl)c5)Oc5cc4cc(c5O[C@@H]4O[C@H](CO)[C@@H](O)[C@H](O)[C@H]4O[C@H]4C[C@](C)(N)[C@H](O)[C@H](C)O4)Oc4ccc(cc4Cl)[C@H]3O)c3ccc(O)c(c3)-c3c(O)cc(O)cc32)CC1 [MCC_000937]
xxxxx (xxxxx = <0.01),xxxxx (xxxxx = <0.01),xxx (xxx = 0.1-<1),CCCCCCCCCCCCCC(=O)N[C@@H](CCCCN)C(=O)N[C@@H](CCCCN)C(=O)N[C@@H](CCCCNC(=O)[C@H]1NC(=O)[C@H]2NC(=O)[C@H](NC(=O)[C@@H]3NC(=O)[C@H](CC(N)=O)NC(=O)[C@H](NC(=O)[C@@H](CC(C)C)NC)[C@H](O)c4ccc(c(Cl)c4)Oc4cc3cc(c4O[C@@H]3O[C@H](CO)[C@@H](O)[C@H](O)[C@H]3O[C@H]3C[C@](C)(N)[C@H](O)[C@H](C)O3)Oc3ccc(cc3Cl)[C@H]2O)c2ccc(O)c(c2)-c2c(O)cc(O)cc21)C(N)=O [MCC_000974]
xxxxx (xxxxx = <0.01),xxxxx (xxxxx = <0.01),xxx (xxx = 0.1-<1),CCCCCCCCCCCCC(=O)N[C@@H](CCCCN)C(=O)N[C@@H](CCCCN)C(=O)N[C@@H](CCCCNC(=O)[C@H]1NC(=O)[C@H]2NC(=O)[C@H](NC(=O)[C@@H]3NC(=O)[C@H](CC(N)=O)NC(=O)[C@H](NC(=O)[C@@H](CC(C)C)NC)[C@H](O)c4ccc(c(Cl)c4)Oc4cc3cc(c4O[C@@H]3O[C@H](CO)[C@@H](O)[C@H](O)[C@H]3O[C@H]3C[C@](C)(N)[C@H](O)[C@H](C)O3)Oc3ccc(cc3Cl)[C@H]2O)c2ccc(O)c(c2)-c2c(O)cc(O)cc21)C(N)=O [MCC_000975]
xxxxx (xxxxx = <0.01),xxxxx (xxxxx = <0.01),xxx (xxx = 0.1-<1),CCCCCCCCCCCC(=O)N[C@@H](CCCCN)C(=O)N[C@@H](CCCCN)C(=O)NCCCNC(=O)[C@H]1NC(=O)[C@H]2NC(=O)[C@H](NC(=O)[C@@H]3NC(=O)[C@H](CC(N)=O)NC(=O)[C@H](NC(=O)[C@@H](CC(C)C)NC)[C@H](O)c4ccc(c(Cl)c4)Oc4cc3cc(c4O[C@@H]3O[C@H](CO)[C@@H](O)[C@H](O)[C@H]3O[C@H]3C[C@](C)(N)[C@H](O)[C@H](C)O3)Oc3ccc(cc3Cl)[C@H]2O)c2ccc(O)c(c2)-c2c(O)cc(O)cc21 [MCC_000978]
xxxxx (xxxxx = <0.01),xxxxx (xxxxx = <0.01),xxx (xxx = 0.1-<1),CCCCCCCCCCCCCC(=O)N[C@@H](CCCCN)C(=O)N[C@@H](CCCCN)C(=O)N[C@@H](Cc1cn(CCCNC(=O)[C@H]2NC(=O)[C@H]3NC(=O)[C@H](NC(=O)[C@@H]4NC(=O)[C@H](CC(N)=O)NC(=O)[C@H](NC(=O)[C@@H](CC(C)C)NC)[C@H](O)c5ccc(c(Cl)c5)Oc5cc4cc(c5O[C@@H]4O[C@H](CO)[C@@H](O)[C@H](O)[C@H]4O[C@H]4C[C@](C)(N)[C@H](O)[C@H](C)O4)Oc4ccc(cc4Cl)[C@H]3O)c3ccc(O)c(c3)-c3c(O)cc(O)cc32)nn1)C(N)=O [MCC_000979]
xxxx (xxxx = 0.01-<0.1),xxxx (xxxx = 0.01-<0.1),xxx (xxx = 0.1-<1),CCCCCCCCCCCN1CCC(C(=O)N[C@@H](CCCCN)C(=O)N[C@@H](CCCCN)C(=O)N[C@@H](CCCCNC(=O)[C@H]2NC(=O)[C@H]3NC(=O)[C@H](NC(=O)[C@@H]4NC(=O)[C@H](CC(N)=O)NC(=O)[C@H](NC(=O)[C@@H](CC(C)C)NC)[C@H](O)c5ccc(c(Cl)c5)Oc5cc4cc(c5O[C@@H]4O[C@H](CO)[C@@H](O)[C@H](O)[C@H]4O[C@H]4C[C@](C)(N)[C@H](O)[C@H](C)O4)Oc4ccc(cc4Cl)[C@H]3O)c3ccc(O)c(c3)-c3c(O)cc(O)cc32)C(N)=O)CC1 [MCC_004818]
xxxx (xxxx = 0.01-<0.1),xxx (xxx = 0.1-<1),x (x = >4),CCCCCCCN1CCC(C(=O)N[C@@H](CCCCN)C(=O)N[C@@H](CCCCN)C(=O)N[C@@H](CCCCNC(=O)[C@H]2NC(=O)[C@H]3NC(=O)[C@H](NC(=O)[C@@H]4NC(=O)[C@H](CC(N)=O)NC(=O)[C@H](NC(=O)[C@@H](CC(C)C)NC)[C@H](O)c5ccc(c(Cl)c5)Oc5cc4cc(c5O[C@@H]4O[C@H](CO)[C@@H](O)[C@H](O)[C@H]4O[C@H]4C[C@](C)(N)[C@H](O)[C@H](C)O4)Oc4ccc(cc4Cl)[C@H]3O)c3ccc(O)c(c3)-c3c(O)cc(O)cc32)C(N)=O)CC1 [MCC_004820]
xxxx (xxxx = 0.01-<0.1),xxxx (xxxx = 0.01-<0.1),xx (xx = 1-4),CCCCCCCNc1ccc(C(=O)N[C@@H](CCCCN)C(=O)N[C@@H](CCCCN)C(=O)N[C@@H](CCCCNC(=O)[C@H]2NC(=O)[C@H]3NC(=O)[C@H](NC(=O)[C@@H]4NC(=O)[C@H](CC(N)=O)NC(=O)[C@H](NC(=O)[C@@H](CC(C)C)NC)[C@H](O)c5ccc(c(Cl)c5)Oc5cc4cc(c5O[C@@H]4O[C@H](CO)[C@@H](O)[C@H](O)[C@H]4O[C@H]4C[C@](C)(N)[C@H](O)[C@H](C)O4)Oc4ccc(cc4Cl)[C@H]3O)c3ccc(O)c(c3)-c3c(O)cc(O)cc32)C(N)=O)cc1 [MCC_004821]
xxx (xxx = 0.1-<1),xx (xx = 1-4),x (x = >4),CNc1ccc(C(=O)N[C@@H](CCCCN)C(=O)N[C@@H](CCCCN)C(=O)N[C@@H](CCCCNC(=O)[C@H]2NC(=O)[C@H]3NC(=O)[C@H](NC(=O)[C@@H]4NC(=O)[C@H](CC(N)=O)NC(=O)[C@H](NC(=O)[C@@H](CC(C)C)NC)[C@H](O)c5ccc(c(Cl)c5)Oc5cc4cc(c5O[C@@H]4O[C@H](CO)[C@@H](O)[C@H](O)[C@H]4O[C@H]4C[C@](C)(N)[C@H](O)[C@H](C)O4)Oc4ccc(cc4Cl)[C@H]3O)c3ccc(O)c(c3)-c3c(O)cc(O)cc32)C(N)=O)cc1 [MCC_004822]
